Results from paper PMC5784132, “Investigation of 20S-hydroxyvitamin D3 analogs and their 1α-OH derivatives as potent vitamin D receptor agonists with anti-inflammatory activities” (Scientific Reports, 2018).

Legend:
[1] = low dose of 0.1 µg/kg; cited from earlier work
IFNγ production = assay: IFNγ inhibition assay in anti-CD3 activated splenocytes; settings: for activity at 0.1 µM: Mus musculus, Splenocyte, 72 h, read-out: IFNγ (ratio ± SD)
CYP24A1 gene expression = assay: RT-PCR analysis of CYP24A1 expression in HaCaT cells; format: cell-based; settings: 100 nM, 24 h treatment; for fold induction at 0.1 µM: Homo sapiens, read-out: relative mRNA level for CYP24A1 versus vehicle control
Protocol: Figure 7 20S(OH)D3 analogs upregulate the expression of CYP24A1 encoding the vitamin D catabolic enzyme, CYP24A1, with varying efficiencies. […] The mRNA was isolated and the RT-PCR was performed using specific primers for the CYP24A1 gene (see Methods). Data are presented as mean ± SE (n = 3). *p < 0.05, **p < 0.01 and ***p < 0.001 compared with the control.
HaCaT cells were purchased from Thermo Fisher Scientific (Waltham, MA, USA) and were cultured as for the VDRE reporter assay. The RNA from HaCaT keratinocytes treated with secosteroids or from DMSO controls was isolated using the Absolutely RNA Miniprep Kit (Stratagene, La Jolla, CA, USA). Reverse transcription (100 ng RNA/reaction) was performed with the Transcriptor First Strand cDNA Synthesis Kit (Roche Inc., Mannheim, Germany). Real-time PCR was performed using cDNA diluted 10-fold in sterile water and a SYBR Green PCR Master Mix. The primers for both forward and reverse strands for CYP24A1 were designed based on the mouse and rat sequences using Primer Quest software ([…], San Jose, CA, USA). Reactions (in triplicate) were performed at 50 °C for 2 min, 95 °C for 10 min and then 40 cycles of 95 °C for 15 s, 60 °C for 30 s and 72 °C for 30 s. Data were collected and analyzed on a Roche Light Cycler 480. The amount of the final amplified product for each gene was compared and normalized to the amount of β-actin product as a housekeeping gene using a comparative Ct method.

VDR [2] = target: T1, VDR (Homo sapiens, UniProt P11473); assay: VDRE-luciferase reporter assay in HaCaT cells
T1 sequence (P11473 1-427): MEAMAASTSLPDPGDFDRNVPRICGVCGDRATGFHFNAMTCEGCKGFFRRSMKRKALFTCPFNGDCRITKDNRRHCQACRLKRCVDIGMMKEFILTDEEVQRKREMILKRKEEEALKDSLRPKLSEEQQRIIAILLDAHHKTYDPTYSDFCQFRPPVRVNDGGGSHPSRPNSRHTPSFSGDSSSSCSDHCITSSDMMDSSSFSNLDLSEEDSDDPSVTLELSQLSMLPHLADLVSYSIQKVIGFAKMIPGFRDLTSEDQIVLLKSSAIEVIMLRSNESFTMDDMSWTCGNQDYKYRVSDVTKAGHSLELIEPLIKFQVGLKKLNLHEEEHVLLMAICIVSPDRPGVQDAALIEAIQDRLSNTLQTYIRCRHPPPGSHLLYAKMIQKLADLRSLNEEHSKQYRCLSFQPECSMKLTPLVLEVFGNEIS

VDR [3] = target: T1, VDR; assay: VDRE-luciferase reporter assay in Caco-2 cells
VDR [4] = target: T1, VDR; assay: VDRE-luciferase reporter assay in Jurkat cells
mouse CYP27B1 = target: T2, mouse CYP27B1 (Mus musculus, UniProt O35084); assay: Metabolism (1α-hydroxylation) of analogs by mouse CYP27B1; format: in vitro ADME; settings: 0.018 mol/mol phospholipid, 0.8 µM mouse CYP27B1, 20 min, 37 °C
T2 construct: made in house; host or cells: E. coli
T2 sequence (O35084 1-507): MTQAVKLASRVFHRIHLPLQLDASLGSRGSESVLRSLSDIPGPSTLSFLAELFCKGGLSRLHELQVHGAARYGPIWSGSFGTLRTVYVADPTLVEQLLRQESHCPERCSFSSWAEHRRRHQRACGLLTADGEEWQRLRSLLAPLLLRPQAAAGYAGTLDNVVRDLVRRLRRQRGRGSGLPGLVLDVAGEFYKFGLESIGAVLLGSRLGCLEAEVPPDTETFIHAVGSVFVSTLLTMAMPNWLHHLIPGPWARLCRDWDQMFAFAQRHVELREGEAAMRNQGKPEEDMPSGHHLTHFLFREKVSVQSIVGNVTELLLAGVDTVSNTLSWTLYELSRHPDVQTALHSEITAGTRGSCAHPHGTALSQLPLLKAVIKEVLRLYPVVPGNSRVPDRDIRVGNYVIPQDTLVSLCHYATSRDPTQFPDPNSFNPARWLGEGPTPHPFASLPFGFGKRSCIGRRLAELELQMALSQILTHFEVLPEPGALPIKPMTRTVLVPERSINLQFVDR
Protocol: In order to make the 1α-OH derivatives of the 20S(OH)D3 analogs enzymatically, and to assess their likely capacity to be 1α-hydroxylated in vivo, the ability of mouse CYP27B1 to hydroxylate these metabolites was examined. 25(OH)D3, the major natural substrate for CYP27B1[2],[30], was included for comparison. The 20S(OH)D3 analogs were incorporated into phospholipid vesicles and incubated with CYP27B1, then the extent of their metabolism was determined by HPLC (Table 2). All analogs tested except 33 were metabolized by CYP27B1. In each case only a single metabolite was produced, assumed to be the 1α-OH derivative based on the known high specificity of the enzyme for the 1α-position[24],[30],[31]. […] Metabolism of 4 was almost twice that of 20S(OH)D3 and metabolism of 23 almost three fold. Thus, the modifications to C24 and/or C25 seen in 13, 4 and 23 enhanced their ability to be metabolized by CYP27B1. […] In contrast, the introduction of an amide linkage into the side chain, as in 33, prevented its hydroxylation by CYP27B1.
Rat CYP24A1, mouse CYP27B1 and adrenodoxin and human adrenodoxin reductase were expressed in E. coli and purified as described before[28],[30],[35]. To test metabolism of each analog, they were incorporated into phospholipid vesicles made from dioleoyl phosphatidylcholine and cardiolipin by sonication, as before[24],[28]. The substrates in vesicles (510 µM phospholipid) were incubated at 37 °C with either CYP24A1 (0.14 µM) or CYP27B1 (0.8 µM) in a reconstituted system containing adrenodoxin (15 µM) and adrenodoxin reductase (0.4 µM). Samples from incubations with CYP24A1 were extracted with dichloromethane and analysed by HPLC using a 25 cm Grace Alltima C18 column, as before[27],[28]. Products (except 33) were separated using an acetonitrile on water gradient (45% to 100% for 20 min then 100% acetonitrile for 40 min at a flow rate of 0.5 mL/min). For the more polar 33, the acetonitrile gradient was 30% to 100% acetonitrile for 30 min then 100% acetonitrile for 20 min, at 0.5 mL/min. Products from incubations with CYP27B1 were similarly extracted with dichloromethane and analyzed by reverse phase HPLC using a 15 cm Grace Smart C18 column and an acetonitrile in water gradient (10 min 45% to 100% acetonitrile then 20 min at 100% acetonitrile, at 0.5 mL/min).

rat CYP24A1 = target: T3, rat CYP24A1 (Rattus norvegicus, UniProt Q09128); assay: Kinetics of metabolism of analogs in phospholipid vesicles by rat CYP24A1; format: in vitro ADME; settings: for Km: rat CYP24A1 0.14 µM, phospholipid vesicles, 1 min incubation, ± SE from curve fit
T3 construct: made in house; host or cells: E. coli
T3 sequence (Q09128 36-514): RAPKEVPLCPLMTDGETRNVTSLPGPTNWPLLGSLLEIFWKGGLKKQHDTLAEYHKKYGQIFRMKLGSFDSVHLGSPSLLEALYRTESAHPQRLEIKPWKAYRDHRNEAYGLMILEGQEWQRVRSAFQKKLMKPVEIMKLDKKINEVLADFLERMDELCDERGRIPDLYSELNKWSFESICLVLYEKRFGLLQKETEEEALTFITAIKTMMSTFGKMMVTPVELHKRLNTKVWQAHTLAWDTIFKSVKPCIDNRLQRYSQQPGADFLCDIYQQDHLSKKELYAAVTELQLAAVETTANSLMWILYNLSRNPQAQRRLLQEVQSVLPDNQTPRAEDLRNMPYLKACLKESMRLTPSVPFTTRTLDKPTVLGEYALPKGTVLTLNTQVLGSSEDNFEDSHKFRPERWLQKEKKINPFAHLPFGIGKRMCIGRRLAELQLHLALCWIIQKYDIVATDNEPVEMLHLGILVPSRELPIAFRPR
Protocol: An incubation time of 1 min was chosen to obtain the initial rate based on the time courses (Fig. 6) and previous studies[28],[29].
To test metabolism of each analog, they were incorporated into phospholipid vesicles made from dioleoyl phosphatidylcholine and cardiolipin by sonication, as before[24],[28]. […] Samples from incubations with CYP24A1 were extracted with dichloromethane and analysed by HPLC using a 25 cm Grace Alltima C18 column, as before[27],[28]. […] For the more polar 33, the acetonitrile gradient was 30% to 100% acetonitrile for 30 min then 100% acetonitrile for 20 min, at 0.5 mL/min.

Product (% total secosteroids) (mouse CYP27B1) | Km (rat CYP24A1) [mmol/mol PL] | EC50 (VDR [2]) [nM] | EC50 (VDR [3]) [nM] | EC50 (VDR [4]) [nM] | Compound | fold induction at 0.1 µM (CYP24A1 gene expression) | activity at 0.1 µM (IFNγ production) [%] | further results
– | – | – | – | – | C=C1/C(=C\C=C2/CCC[C@]3(C)[C@@H]([C@H](C)CCCC(C)(C)O)CC[C@@H]23)C[C@@H](O)C[C@@H]1O [1,25(OH)2D3, 1α,25-dihydroxyvitamin D3, reference compound] | – | – | calcemic effect [1]: substantial calcemic effect; decrease of IFNγ production level (IFNγ production; 100 nM): 60%
– | – | – | – | – | C=C1/C(=C\C=C2/CCC[C@]3(C)[C@@H]([C@H](C)OCCC(C)(C)O)CC[C@@H]23)C[C@@H](O)C[C@@H]1O [22-Oxa, reference compound] | – | – | relative mRNA level for CYP24A1 versus vehicle control (CYP24A1 gene expression): 77.5 fold; EC50 (VDR [2]; read-out: VDRE stimulation (EC50 ± SD, nM) HaCaT, HaCaT cells, 24 h, NS: no significance): 40.1 ± 1.5 nM; EC50 (VDR [3]; read-out: VDRE stimulation (EC50 ± SD, nM) Caco-2, Caco-2 cells, 24 h, NS: no significance): 42.5 ± 1.6 nM; EC50 (VDR [4]; read-out: VDRE stimulation (EC50 ± SD, nM) Jurkat, Jurkat cells, 24 h, NS: no significance): 2.9 ± 0.3 nM; decrease of IFNγ production level (IFNγ production; 100 nM): 51%; IFNγ (ratio ± SD) (IFNγ production; ratio to control (1.000), 100 nM, mouse splenocytes, anti-CD3, 72 h): 0.487 ± 0.017
86.0 | – | – | – | – | C=C1CC[C@H](O)C/C1=C/C=C1\CCC[C@]2(C)[C@@H]([C@H](C)CCCC(C)(C)O)CC[C@@H]12 [25(OH)D3, 25-hydroxyvitamin D3, reference compound] | – | – | –
40.6 | 2.0 ± 1.7 | 460 ± 36.5 | 580 ± 19.2 | 439 ± 25.7 | C=C1CC[C@H](O)C/C1=C/C=C1\CCC[C@@]2(C)[C@H]1CC[C@@H]2[C@@](C)(O)CCC=C(C)C [compound 4] | 32.4 | 83.2 ± 2.3 | kcat, fold lower than for 1,25(OH)2D3 (rat CYP24A1; rat CYP24A1): approximately 4 fold
– | – | 198 ± 8.1 | 182 ± 6.1 | 237 ± 5.5 | C=C1/C(=C\C=C2/CCC[C@@]3(C)[C@H]2CC[C@@H]3[C@@](C)(O)CCC=C(C)C)C[C@@H](O)C[C@@H]1O [compound 5] | 149 | 38.1 ± 1.7 | –
– | – | 226 ± 3.5 | 188 ± 1.9 | 248 ± 5 | C=C1/C(=C\C=C2/CCC[C@@]3(C)[C@H]2CC[C@@H]3[C@@](C)(O)CCOC(C)C)C[C@@H](O)C[C@@H]1O [compound 14] | 2 | 62.8 ± 0.8 | –
57.1 | 11.6 ± 3.1 | – | – | – | C=C1CC[C@H](O)C/C1=C/C=C1\CCC[C@@]2(C)[C@H]1CC[C@@H]2[C@@](C)(O)CCC(F)(F)C(C)C [compound 23] | 0.9 | 69.8 ± 3.1 | Km, fold lower than that for 20S(OH)D3 (rat CYP24A1; rat CYP24A1): 3–4 fold
– | – | 254 ± 7.9 | 236 ± 4.1 | 305 ± 4.5 | C=C1/C(=C\C=C2/CCC[C@@]3(C)[C@H]2CC[C@@H]3[C@@](C)(O)CCC(F)(F)C(C)C)C[C@@H](O)C[C@@H]1O [compound 24] | 2.3 | 56 ± 1 | –
0 | 15.4 ± 1.7 | – | – | – | C=C1CC[C@H](O)C/C1=C/C=C1\CCC[C@]2(C)[C@@H](C(C)(O)CC(=O)NC(C)C)CC[C@@H]12 (stereo partly shown) [compound 33] | 1.2 | 62.8 ± 1.4 | catalytic efficiency, fold lower than for 13 (rat CYP24A1; rat CYP24A1): 13 fold; kcat, fold lower than for 1,25(OH)2D3 (rat CYP24A1; rat CYP24A1): approximately 4 fold
